Experimental findings from paper PMC12571268, “Functional expression of a Mo-dependent formate dehydrogenase in Escherichia coli under aerobic conditions” (PLOS One, 2025) are described below.

For this assay, the target named is T1, TsFDH (formate dehydrogenase of Thiobacillus sp. KNK65MA) (Thiobacillus sp. KNK65MA, UniProt Q76EB7).
T1 construct: gene fdh65MA; full-length synthetic gene codon-optimized for E. coli on pZE plasmid pGEN1395 in E. coli delta-lpd; clarified lysate; metal-independent
T1 sequence (Q76EB7 1-401): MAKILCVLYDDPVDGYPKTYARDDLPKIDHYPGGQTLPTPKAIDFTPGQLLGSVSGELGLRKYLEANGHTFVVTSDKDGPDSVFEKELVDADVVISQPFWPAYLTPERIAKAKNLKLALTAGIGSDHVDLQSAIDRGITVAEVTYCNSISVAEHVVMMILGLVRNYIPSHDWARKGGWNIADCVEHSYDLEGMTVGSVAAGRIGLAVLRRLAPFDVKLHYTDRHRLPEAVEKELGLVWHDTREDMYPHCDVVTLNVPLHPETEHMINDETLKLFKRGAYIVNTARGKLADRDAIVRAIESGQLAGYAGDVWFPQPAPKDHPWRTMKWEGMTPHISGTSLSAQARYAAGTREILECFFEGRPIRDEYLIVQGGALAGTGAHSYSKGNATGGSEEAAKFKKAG
In words: NADH formation at […] nm in clarified lysate, blank without formate subtracted. The class given is biochemical. Conditions: 100 mM formate, 5 mM NAD+, 100 mM Tris pH 9.0; plasmid-free strains as control.

With `O=CO` [formate], the “NADH formation at 340 nm in clarified lysate, blank without formate subtracted” value is recorded as “lysates of the strains containing the FDH from Thiobacillus yielded higher specific activity”.
